From patent publication US11590116B2 (THERAVANCE BIOPHARMA R&D IP, LLC, priority 2019, dated 2023)

Experiments:
[1] = target: T1, recombinant human ALK5 (TGF-βR1) protein (Homo sapiens, UniProt P36897); test: Biochemical ALK5 (TGF-βR1) assay to measure pKi (LANCE Ultra ULight kinase assay); settings: apparent pKi from pIC50 by Cheng-Prusoff, read-out: ALK5 pKi (converted)
T1 construct: purchased Life Technologies PR9075A
T1 sequence (P36897 34-503): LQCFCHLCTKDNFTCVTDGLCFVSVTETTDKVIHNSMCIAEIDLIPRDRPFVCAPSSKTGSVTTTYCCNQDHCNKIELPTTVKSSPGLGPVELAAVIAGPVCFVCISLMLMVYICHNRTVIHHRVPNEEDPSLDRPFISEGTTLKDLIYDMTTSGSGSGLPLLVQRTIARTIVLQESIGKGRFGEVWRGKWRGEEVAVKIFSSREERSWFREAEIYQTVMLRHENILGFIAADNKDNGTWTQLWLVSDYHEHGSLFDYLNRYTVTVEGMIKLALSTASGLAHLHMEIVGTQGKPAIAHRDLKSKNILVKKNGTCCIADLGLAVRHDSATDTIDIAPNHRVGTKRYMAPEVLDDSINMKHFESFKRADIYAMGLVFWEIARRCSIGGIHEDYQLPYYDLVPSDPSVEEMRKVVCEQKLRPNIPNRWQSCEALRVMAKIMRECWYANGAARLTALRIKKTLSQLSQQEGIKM
How it was run: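 Compounds (10 μM to 25 pM) preincubated 60 minutes at room temperature with enzyme, then reaction run 60 minutes at 37° C with ATP added as 125 μM (5× final). Stopped with EDTA plus Eu-anti-phospho-Topoisomerase 2-alpha (Thr1342) antibody, TR-FRET read at 665 nm; pIC50 converted to pKi via Cheng-Prusoff.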

[2] = system: TGF-β-stimulated SMAD3 phosphorylation in BEAS-2B cells; test: Cellular ALK5 potency assay, inhibition of TGF-β stimulated pSMAD3 formation in BEAS-2B cells; type: cell-based; settings: Homo sapiens; inhibition of TGF-β stimulated pSMAD3 formation, BEAS-2B cells; read-out: BEAS2B pIC50 (converted)
How it was run: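 BEAS-2B human lung epithelial cells, seeded overnight, were pre-treated with compound in HBSS/25 mM HEPES/1% BSA for 1 h at 37 °C, then stimulated with TGF-β (final 10 ng/mL) for 30 min. Lysates were assayed for pSMAD3 by AlphaLISA; pIC50 came from dose-dependent signal change versus TGF-β-stimulated untreated cells.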

Row | SMILES | Ki [1] [nM] | IC50 [2] [nM]
1 | Cc1cccc(-c2[nH]cnc2-c2ccc3ncc(NCCN4CC5(CCCNC5)C4)cc3c2)n1 [Compound 733, N-[2-(2,8-diazaspiro[3.5]nonan-2-yl)ethyl]-6-[5-(6-methyl-2-pyridyl)-1H-imidazol-4-yl]quinolin-3-amine] | 0.0398 to 0.316 | 200 to 1260
2 | Cc1cccc(-c2[nH]cnc2-c2ccc3ncc(-c4cnc5c(c4)CCC5N)cc3c2)n1 (centres unmarked) [Compound 734, 3-[6-[5-(6-methyl-2-pyridyl)-1H-imidazol-4-yl]-3-quinolyl]-6,7-dihydro-5H-cyclopenta[b]pyridin-7-amine] | 0.0398 to 0.316 | 25.1 to 158
3 | Cc1cccc(-c2[nH]cnc2-c2ccc3ncc(NCCN4CC5(CCNCC5)C4)cc3c2)n1 [Compound 735, N-[2-(2,7-diazaspiro[3.5]nonan-2-yl)ethyl]-6-[5-(6-methyl-2-pyridyl)-1H-imidazol-4-yl]quinolin-3-amine] | 0.0398 to 0.316 | 200 to 1260
4 | Cc1cccc(-c2[nH]cnc2-c2ccc3ncc(-c4cccc(C(=O)O[C@@H]5CCNC5)c4)cc3c2)n1 [Compound 736, [(3R)-pyrrolidin-3-yl] 3-[6-[5-(6-methyl-2-pyridyl)-1H-imidazol-4-yl]-3-quinolyl]benzoate] | 0.0398 to 0.316 | 25.1 to 158
5 | Cc1cccc(-c2[nH]cnc2-c2ccc3ncc(C(=O)OCCN4CCCC4)cc3c2)n1 [Compound 737, 2-pyrrolidin-1-ylethyl 6-[5-(6-methyl-2-pyridyl)-1H-imidazol-4-yl]quinoline-3-carboxylate] | 0.398 to 3.16 | 25.1 to 158
6 | Cc1cccc(-c2[nH]cnc2-c2ccc3ncc(C(=O)OCCCN4CCCC4)cc3c2)n1 [Compound 738, 3-pyrrolidin-1-ylpropyl 6-[5-(6-methyl-2-pyridyl)-1H-imidazol-4-yl]quinoline-3-carboxylate] | 0.0398 to 0.316 | 25.1 to 158
7 | Cc1cccc(-c2[nH]cnc2-c2ccc3ncc(C(=O)OC4CNC4)cc3c2)n1 [Compound 739, azetidin-3-yl 6-[5-(6-methyl-2-pyridyl)-1H-imidazol-4-yl]quinoline-3-carboxylate] | 0.0398 to 0.316 | 25.1 to 158
8 | Cc1cccc(-c2[nH]cnc2-c2ccc3ncc(C(=O)OC4CCNCC4)cc3c2)n1 [Compound 740, piperidin-4-yl 6-(5-(6-methylpyridin-2-yl)-1H-imidazol-4-yl)quinoline-3-carboxylate] | 0.0398 to 0.316 | 25.1 to 158
9 | Cc1cccc(-c2[nH]cnc2-c2ccc3ncc(C(=O)OCC4CCNCC4)cc3c2)n1 [Compound 741, 4-piperidylmethyl 6-[5-(6-methyl-2-pyridyl)-1H-imidazol-4-yl]quinoline-3-carboxylate] | 0.0398 to 0.316 | 25.1 to 158
10 | Cc1cccc(-c2[nH]cnc2-c2ccc3ncc(-c4nc(C(=O)OC5CCNCC5)cs4)cc3c2)n1 [Compound 742, 4-piperidyl 2-[6-[5-(6-methyl-2-pyridyl)-1H-imidazol-4-yl]-3-quinolyl]thiazole-4-carboxylate] | 0.0398 to 0.316 | 25.1 to 158
11 | Cc1cccc(-c2[nH]cnc2-c2ccc3ncc(-c4nc(C(=O)O[C@@H]5CCNC5)cs4)cc3c2)n1 [Compound 743, [(3R)-pyrrolidin-3-yl]2-[6-[5-(6-methyl-2-pyridyl)-1H-imidazol-4-yl]-3-quinolyl]thiazole-4-carboxylate] | 0.0398 to 0.316 | 25.1 to 158
12 | Cc1cccc(-c2[nH]cnc2-c2ccc3ncc(-c4nc(C(=O)O[C@@H]5CCN(C)C5)cs4)cc3c2)n1 [Compound 744, [(3R)-1-methylpyrrolidin-3-yl] 2-[6-[5-(6-methyl-2-pyridyl)-1H-imidazol-4-yl]-3-quinolyl]thiazole-4-carboxylate] | 0.0398 to 0.316 | 25.1 to 158
13 | Cc1cccc(-c2[nH]cnc2-c2ccc3ncc(-c4nc(C(=O)OC5CNC5)cs4)cc3c2)n1 [Compound 745, azetidin-3-yl 2-[6-[5-(6-methyl-2-pyridyl)-1H-imidazol-4-yl]-3-quinolyl]thiazole-4-carboxylate] | 0.0398 to 0.316 | 25.1 to 158
14 | Cc1cccc(-c2[nH]cnc2-c2ccc3ncc(-c4nc(C(=O)OCC5CNC5)cs4)cc3c2)n1 [Compound 746, azetidin-3-ylmethyl 2-[6-[5-(6-methyl-2-pyridyl)-1H-imidazol-4-yl]-3-quinolyl]thiazole-4-carboxylate] | < 0.0316 | 25.1 to 158
15 | Cc1cccc(-c2[nH]cnc2-c2ccc3ncc(-c4nc(C(=O)O[C@H]5CCN(C)C5)cs4)cc3c2)n1 [Compound 747, [(3S)-1-methylpyrrolidin-3-yl] 2-[6-[5-(6-methyl-2-pyridyl)-1H-imidazol-4-yl]-3-quinolyl]thiazole-4-carboxylate] | 0.0398 to 0.316 | < 20

More lines, main results first:

Row | Ki [1] [nM] | SMILES | IC50 [2] [nM]
16 | 0.0398 to 0.316 | Cc1cccc(-c2[nH]cnc2-c2ccc3ncc(-c4nc(C(=O)O[C@H]5CCNC5)cs4)cc3c2)n1 [Compound 748, (S)-pyrrolidin-3-yl 2-(6-(5-(6-methylpyridin-2-yl)-1H-imidazol-4-yl)quinolin-3-yl)thiazole-4-carboxylate] | 25.1 to 158
17 | < 0.0316 | Cc1cccc(-c2[nH]cnc2-c2ccc3ncc(-c4csc(C(=O)O[C@@H]5CCNC5)c4)cc3c2)n1 [Compound 749, [(3R)-pyrrolidin-3-yl] 4-[6-[5-(6-methyl-2-pyridyl)-1H-imidazol-4-yl]-3-quinolyl]thiophene-2-carboxylate] | 25.1 to 158
18 | 0.0398 to 0.316 | Cc1cccc(-c2[nH]cnc2-c2ccc3ncc(-c4csc(C(=O)O[C@@H]5CCN(C)C5)c4)cc3c2)n1 [Compound 750, [(3R)-1-methylpyrrolidin-3-yl] 4-[6-[5-(6-methyl-2-pyridyl)-1H-imidazol-4-yl]-3-quinolyl]thiophene-2-carboxylate] | < 20
19 | < 0.0316 | Cc1cccc(-c2[nH]cnc2-c2ccc3ncc(-c4csc(C(=O)OC5CCNCC5)c4)cc3c2)n1 [Compound 751, 4-piperidyl 4-[6-[5-(6-methyl-2-pyridyl)-1H-imidazol-4-yl]-3-quinolyl]thiophene-2-carboxylate] | 25.1 to 158
20 | 0.0398 to 0.316 | Cc1cccc(-c2[nH]cnc2-c2ccc3ncc(-c4csc(C(=O)OC5CNC5)c4)cc3c2)n1 [Compound 752, azetidin-3-yl 4-[6-[5-(6-methyl-2-pyridyl)-1H-imidazol-4-yl]-3-quinolyl]thiophene-2-carboxylate] | 25.1 to 158
21 | 0.0398 to 0.316 | Cc1cccc(-c2[nH]cnc2-c2ccc3ncc(-c4csc(C(=O)OCC5CNC5)c4)cc3c2)n1 [Compound 753, azetidin-3-ylmethyl 4-(6-(5-(6-methylpyridin-2-yl)-1H-imidazol-4-yl)quinolin-3-yl)thiophene-2-carboxylate] | 25.1 to 158
22 | 0.0398 to 0.316 | Cc1cccc(-c2[nH]cnc2-c2ccc3ncc(-c4csc(C(=O)O[C@H]5CCNC5)c4)cc3c2)n1 [Compound 754, [(3S)-pyrrolidin-3-yl] 4-[6-[5-(6-methyl-2-pyridyl)-1H-imidazol-4-yl]-3-quinolyl]thiophene-2-carboxylate] | 25.1 to 158
23 | 0.0398 to 0.316 | Cc1cccc(-c2[nH]cnc2-c2ccc3ncc(-c4csc(C(=O)O[C@H]5CCN(C)C5)c4)cc3c2)n1 [Compound 755, [(3S)-1-methylpyrrolidin-3-yl] 4-[6-[5-(6-methyl-2-pyridyl)-1H-imidazol-4-yl]-3-quinolyl]thiophene-2-carboxylate] | < 20
24 | 0.0398 to 0.316 | Cc1cccc(-c2[nH]cnc2-c2ccc3ncc(C(=O)OCCN4CCNCC4)cc3c2)n1 [Compound 756, 2-(piperazin-1-yl)ethyl 6-(5-(6-methylpyridin-2-yl)-1H-imidazol-4-yl)quinoline-3-carboxylate] | 25.1 to 158
25 | 0.398 to 3.16 | Cc1cccc(-c2[nH]cnc2-c2ccc3ncc(C(=O)O[C@H]4CCNC4)cc3c2)n1 [Compound 757, [(3S)-pyrrolidin-3-yl] 6-[5-(6-methyl-2-pyridyl)-1H-imidazol-4-yl]quinoline-3-carboxylate] | 25.1 to 158
26 | 0.398 to 3.16 | Cc1cccc(-c2[nH]cnc2-c2ccc3ncc(C(=O)O[C@@H]4CCN(C)C4)cc3c2)n1 [Compound 758, [(3R)-1-methylpyrrolidin-3-yl] 6-[5-(6-methyl-2-pyridyl)-1H-imidazol-4-yl]quinoline-3-carboxylate] | 25.1 to 158
27 | 0.0398 to 0.316 | Cc1cccc(-c2[nH]cnc2-c2ccc3ncc(C(=O)O[C@H]4C[C@@H](N)C4)cc3c2)n1 [Compound 759, (3-aminocyclobutyl) 6-[5-(6-methyl-2-pyridyl)-1H-imidazol-4-yl]quinoline-3-carboxylate] | 25.1 to 158
28 | 0.398 to 3.16 | Cc1cccc(-c2[nH]cnc2-c2ccc3ncc(C(=O)OC[C@H]4CCCN4)cc3c2)n1 [Compound 760, [(2R)-pyrrolidin-2-yl]methyl 6-[5-(6-methyl-2-pyridyl)-1H-imidazol-4-yl]quinoline-3-carboxylate] | 25.1 to 158
